Laboratory results published in patent US11986532B2 (Arvinas Operations, Inc., priority 2021, dated 2024).
Where two headings read alike, the source gives them in different places.

Target: T1, BCL6 (Homo sapiens, UniProt P41182)
T1 construct: endogenous in cells; host or cells: T47D breast cancer epithelial cells
Experiment: Immunofluorescence protocol for high content imaging of BCL6 (degradation) in T47D cells, 3 days compound treatment
Assay type: cell-based
Settings: for DC50: read-out: Mean DC50 (nM)* category; for Dmax: read-out: Mean Dmax (%)** category
Summary of the method: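 High content immunofluorescence imaging (10×, 4 fields/well) of BCL6 using rabbit primary antibody, Alexa-488 secondary, cell mask and Hoechst nuclear stain after PFA fixation. Before staining, T47D cells (7K/well) were exposed for 3 days at 37° C to 3-fold serial dilutions of compound, top final concentration 0.1 or 1 μM.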

[1] = T47D cells, 3 days compound treatment

| SMILES | DC50 [1] [nM] | Dmax [1] [%] | Dmax (T47D) [%] | DC50 [nM] |
| --- | --- | --- | --- | --- |
| CNC(=O)COc1cc2cc(Nc3nc(N4CCC5(CC4)CN(C(=O)C4CCN(c6cccc7c6CN(C6CCC(=O)NC6=O)C7=O)CC4)C5)ncc3Cl)ccc2n(C(C)C)c1=O (stereo not drawn) [Compound 22, 2-[(6-{[5-chloro-2-(2-{1-[2-(2,6-dioxopiperidin-3-yl)-1-oxo-2,3-dihydro-1H-isoindol-4-yl]piperidine-4-carbonyl}-2,7-diazaspiro[3.5]nonan-7-yl)pyrimidin-4-yl]amino}-2-oxo-1-(propan-2-yl)-1,2-dihydroquinolin-3-yl)oxy]-N-methylacetamide] | < 10 | 50 to 70 | – | – |
| CNC(=O)COc1cc2c(F)c(Nc3nc(N4CCC(CN5CCC6(CN(c7ccc8c(c7)CN(C7CCC(=O)NC7=O)C8=O)C6)C(F)(F)C5)CC4)ncc3Cl)ccc2n(C(C)C)c1=O (stereo not drawn) [Compound 171, 2-{[6-({5-chloro-2-[4-({2-[2-(2,6-dioxopiperidin-3-yl)-1-oxo-2,3-dihydro-1H-isoindol-5-yl]-5,5-difluoro-2,7-diazaspiro[3.5]nonan-7-yl}methyl)piperidin-1-yl]pyrimidin-4-yl}amino)-5-fluoro-2-oxo-1-(propan-2-yl)-1,2-dihydroquinolin-3-yl]oxy}-N-methylacetamide] | < 10 | ≥ 70 | – | – |
| CNC(=O)COc1cc2cc(Nc3nc(N4CCC(F)(CN5CCC6(CC5)CCN(c5cccc7c5CN(C5CCC(=O)NC5=O)C7=O)CC6)CC4)ncc3Cl)ccc2n(C(C)C)c1=O (stereo not drawn) [Compound 82, 2-{[6-({5-chloro-2-[4-({9-[2-(2,6-dioxopiperidin-3-yl)-1-oxo-2,3-dihydro-1H-isoindol-4-yl]-3,9-diazaspiro[5.5]undecan-3-yl}methyl)-4-fluoropiperidin-1-yl]pyrimidin-4-yl}amino)-2-oxo-1-(propan-2-yl)-1,2-dihydroquinolin-3-yl]oxy}-N-methylacetamide] | < 10 | ≥ 70 | – | – |
| CNC(=O)COc1cc2cc(Nc3nc(N4CCC(O[C@H]5C[C@H](N6CCC(c7cnc8c(c7)CN(C7CCC(=O)NC7=O)C8=O)CC6)C5)CC4)ncc3Cl)ccc2n(C(C)C)c1=O (stereo partly drawn) [Compound 216, 2-({6-[(5-chloro-2-{4-[(1r,3r)-3-{4-[6-(2,6-dioxopiperidin-3-yl)-7-oxo-5H,6H,7H-pyrrolo[3,4-b]pyridin-3-yl]piperidin-1-yl}cyclobutoxy]piperidin-1-yl}pyrimidin-4-yl)amino]-2-oxo-1-(propan-2-yl)-1,2-dihydroquinolin-3-yl}oxy)-N-methylacetamide] | – | – | 50 to 70 | < 10 |
| CNC(=O)COc1cc2cc(Nc3nc(N4CCC(CN5CCN(c6ccc7c(c6F)CN(C6CCC(=O)NC6=O)C7=O)CC5)CC4)ncc3Cl)ccc2n(C(C)C)c1=O (stereo not drawn) [Compound 322, 2-{[6-({5-chloro-2-[4-({4-[2-(2,6-dioxopiperidin-3-yl)-4-fluoro-1-oxo-2,3-dihydro-1H-isoindol-5-yl]piperazin-1-yl}methyl)piperidin-1-yl]pyrimidin-4-yl}amino)-2-oxo-1-(propan-2-yl)-1,2-dihydroquinolin-3-yl]oxy}-N-methylacetamide] | – | – | 50 to 70 | < 10 |
| CNC(=O)COc1cc2cc(Nc3nc(N4CCC(CN5CC[C@]6(CCN(c7ccc8c(c7)CN([C@@H]7CCC(=O)NC7=O)C8=O)C6)C5)CC4)ncc3Cl)ccc2n(C(C)C)c1=O [Compound 2, 2-[(6-{[5-chloro-2-(4-{[(5S)-7-{2-[(3R)-2,6-dioxopiperidin-3-yl]-1-oxo-2,3-dihydro-1H-isoindol-5-yl}-2,7-diazaspiro[4.4]nonan-2-yl]methyl}piperidin-1-yl)pyrimidin-4-yl]amino}-2-oxo-1-(propan-2-yl)-1,2-dihydroquinolin-3-yl)oxy]-N-methylacetamide] | < 10 | ≥ 70 | – | – |
| CNC(=O)COc1cc2cc(Nc3nc(N4CCC(O[C@H]5C[C@H](N6CC=C(c7ccc8c(c7)C(=O)N(C7CCC(=O)NC7=O)C8=O)CC6)C5)CC4)ncc3Cl)ccc2n(C(C)C)c1=O (stereo partly drawn) [Compound 303, 2-({6-[(5-chloro-2-{4-[(1r,3r)-3-{4-[2-(2,6-dioxopiperidin-3-yl)-1,3-dioxo-2,3-dihydro-1H-isoindol-5-yl]-1,2,3,6-tetrahydropyridin-1-yl}cyclobutoxy]piperidin-1-yl}pyrimidin-4-yl)amino]-2-oxo-1-(propan-2-yl)-1,2-dihydroquinolin-3-yl}oxy)-N-methylacetamide] | – | – | 50 to 70 | 50 to 100 |
| CNC(=O)COc1cc2cc(Nc3nc(N4CCC(N5CCC56CN(C5CCCN(c7ccc8c(c7)CN(C7CCC(=O)NC7=O)C8=O)C5)C6)CC4)ncc3Cl)ccc2n(C(C)C)c1=O (stereo not drawn) [Compound 222, 2-{[6-({5-chloro-2-[4-(6-{1-[2-(2,6-dioxopiperidin-3-yl)-1-oxo-2,3-dihydro-1H-isoindol-5-yl]piperidin-3-yl}-1,6-diazaspiro[3.3]heptan-1-yl)piperidin-1-yl]pyrimidin-4-yl}amino)-2-oxo-1-(propan-2-yl)-1,2-dihydroquinolin-3-yl]oxy}-N-methylacetamide] | – | – | 50 to 70 | < 10 |
| CC(C)n1c(=O)c(OCC(=O)O)cc2cc(Nc3nc(N4CCC(O[C@H]5C[C@H](N6CCC(c7ccc8c(c7F)CN(C7CCC(=O)NC7=O)C8=O)CC6)C5)CC4)ncc3Cl)ccc21 (stereo partly drawn) [Compound 264, 2-({6-[(5-chloro-2-{4-[(1r,3r)-3-{4-[2-(2,6-dioxopiperidin-3-yl)-4-fluoro-1-oxo-2,3-dihydro-1H-isoindol-5-yl]piperidin-1-yl}cyclobutoxy]piperidin-1-yl}pyrimidin-4-yl)amino]-2-oxo-1-(propan-2-yl)-1,2-dihydroquinolin-3-yl}oxy)acetic acid] | – | – | ≥ 70 | < 10 |
| CNC(=O)COc1cc2cc(Nc3nc(N4CCC(F)(CN5CCC6(CCN(c7ccc8c(c7)CN(C7CCC(=O)NC7=O)C8=O)C6)C5)CC4)ncc3Cl)ccc2n(C(C)C)c1=O (stereo not drawn) [Compound 17, 2-{[6-({5-chloro-2-[4-({7-[2-(2,6-dioxopiperidin-3-yl)-1-oxo-2,3-dihydro-1H-isoindol-5-yl]-2,7-diazaspiro[4.4]nonan-2-yl}methyl)-4-fluoropiperidin-1-yl]pyrimidin-4-yl}amino)-2-oxo-1-(propan-2-yl)-1,2-dihydroquinolin-3-yl]oxy}-N-methylacetamide] | < 10 | < 50 | – | – |
| CNC(=O)COc1cc2cc(Nc3nc(N4CCC(O[C@H]5C[C@H](N6CCN(c7ccc8c(c7Cl)CN([C@H]7CCC(=O)NC7=O)C8=O)[C@H](C)C6)C5)CC4)ncc3Cl)ccc2n(C(C)C)c1=O [Compound 267, 2-({6-[(5-chloro-2-{4-[(1r,3r)-3-[(3R)-4-{4-chloro-2-[(3S)-2,6-dioxopiperidin-3-yl]-1-oxo-3H-isoindol-5-yl}-3-methylpiperazin-1-yl]cyclobutoxy]piperidin-1-yl}pyrimidin-4-yl)amino]-1-isopropyl-2-oxoquinolin-3-yl}oxy)-N-methylacetamide] | – | – | 50 to 70 | < 10 |
| CNC(=O)COc1cc2cc(Nc3nc(N4CCC(O[C@H]5C[C@H](N6CCCC7(CCN(c8ccc9c(c8F)CN(C8CCC(=O)NC8=O)C9=O)C7)C6)C5)CC4)ncc3Cl)ccc2n(C(C)C)c1=O (stereo partly drawn) [Compound 401, 2-({6-[(5-chloro-2-{4-[(1r,3r)-3-{2-[2-(2,6-dioxopiperidin-3-yl)-4-fluoro-1-oxo-2,3-dihydro-1H-isoindol-5-yl]-2,7-diazaspiro[4.5]decan-7-yl}cyclobutoxy]piperidin-1-yl}pyrimidin-4-yl)amino]-2-oxo-1-(propan-2-yl)-1,2-dihydroquinolin-3-yl}oxy)-N-methylacetamide] | – | – | ≥ 70 | < 10 |
